Data from PubChem BioAssay (NCI).
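Following 48 hours of exposure in 96-well plates, responses at five concentrations were used to interpolate endpoints linearly. TGI: concentration producing complete growth inhibition.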

How the values were obtained:
Test in all cases: growth of human tumour cells (NCI), 48 h
HOP-92 NSCLC = system: HOP-92 NSCLC
HL-60(TB) leukemia = system: HL-60(TB) leukemia
DU-145 prostate = system: DU-145 prostate
HS 578T breast = system: HS 578T breast
RXF 393 renal = system: RXF 393 renal
LOX IMVI melanoma = system: LOX IMVI melanoma
BT-549 breast = system: BT-549 breast
TK-10 renal = system: TK-10 renal
IGROV1 ovarian = system: IGROV1 ovarian
A498 renal = system: A498 renal
SNB-75 CNS = system: SNB-75 CNS
HCT-116 colon = system: HCT-116 colon
HCC-2998 colon = system: HCC-2998 colon
K-562 leukemia = system: K-562 leukemia
SK-MEL-2 melanoma = system: SK-MEL-2 melanoma
MCF7 breast = system: MCF7 breast
SW-620 colon = system: SW-620 colon

Structure (SMILES) | TGI (HOP-92 NSCLC) [µM] | TGI (HL-60(TB) leukemia) [µM] | TGI (DU-145 prostate) [µM] | TGI (HS 578T breast) [µM] | TGI (RXF 393 renal) [µM] | TGI (LOX IMVI melanoma) [µM] | TGI (BT-549 breast) [µM] | TGI (TK-10 renal) [µM] | TGI (IGROV1 ovarian) [µM] | TGI (A498 renal) [µM] | TGI (SNB-75 CNS) [µM] | TGI (HCT-116 colon) [µM] | TGI (HCC-2998 colon) [µM] | TGI (K-562 leukemia) [µM] | TGI (SK-MEL-2 melanoma) [µM] | TGI (MCF7 breast) [µM] | TGI (SW-620 colon) [µM]
CCC/C(Cl)=N\OC(=O)Nc1ccc(OC(F)(F)F)cc1 | 4.48 | > 20.6 | 33.4 | > 70.7 | 31.2 | 8.78 | 56.6 | 12.4 | 22 | 54.8 | 35.8 | > 51.6 | 38.6 | > 20.1 | 32.9 | 40.3 | –
NC(CCC(=O)NC(CSCC1C(=O)Nc2ccccc21)C(=O)NCC(=O)O)C(=O)O (stereo not drawn) | 9.55 | 47.5 | 12.9 | > 100 | 2.33 | 2.78 | 15.9 | 18.9 | 13 | 33.1 | 8.2 | 9.27 | 10.6 | – | 25.4 | 17.5 | 10.7
CC(=O)OCC1OC(n2c3c(cc(C#N)c2=S)CCCCC3)C(OC(C)=O)C(OC(C)=O)C1OC(C)=O (stereo not drawn) | > 100 | > 100 | > 100 | > 100 | > 100 | > 100 | > 100 | > 100 | > 100 | > 100 | > 100 | > 100 | > 100 | > 100 | > 100 | > 100 | –
O=C(O)/C=c1/c2ccccc2n2nc3ccccc3c12 | – | 67.1 | > 100 | 78.8 | > 100 | 78 | > 100 | > 100 | > 100 | 46 | – | 90.7 | 84.9 | > 100 | > 100 | > 100 | > 100
CC(C)=CCNc1ncnc2c1ncn2CCC#N | > 100 | > 100 | > 100 | > 100 | > 100 | > 100 | > 100 | > 100 | > 100 | > 100 | > 100 | > 100 | > 100 | > 100 | – | > 100 | > 100
CC(C)(Cl)C(Br)CCC(=CCCl)CBr (mixture of isomers) | 4.03 | 2.6 | 10.7 | 16.4 | 7.57 | – | 6.24 | 5.21 | 6.73 | 9.22 | 8.18 | 3.67 | 4.22 | > 20.1 | 9.93 | 2.62 | 4.43
Nc1[nH]nc2nc3ccc(C(F)(F)F)cc3nc12 | 78 | – | 36.8 | > 100 | 57.1 | 50.8 | > 100 | > 100 | 72.2 | > 100 | 41.3 | > 100 | > 100 | > 100 | 84.3 | 31.1 | 33.4
CC(C)(C)C(=O)CC1=Nc2ccccc2SC1(O)CC(=O)C(C)(C)C (stereo not drawn) | – | 80.2 | > 100 | 71.7 | 65.8 | 49.4 | 51.1 | > 100 | 61.2 | > 100 | – | 53.7 | 40.5 | 97.1 | 32 | 61.2 | > 100
CCN1CCC(O)(/C=C/c2ccc(C)cc2C)C(C(=O)/C=C/c2ccc(C)cc2C)C1 (stereo not drawn) | 3.8 | > 100 | 10.5 | 5.38 | 14.3 | 3.71 | 8.52 | 3.41 | 8.98 | 22.7 | 36.6 | – | 3.37 | > 100 | 11.1 | 24.4 | 10.4
COC(=O)C1=C(C)NC(C)=C(C(=O)OC)C1c1nc2sccn2c1[N+](=O)[O-] | > 100 | > 100 | > 100 | > 100 | > 100 | > 100 | > 100 | > 100 | – | > 100 | > 100 | > 100 | > 100 | > 100 | > 100 | > 100 | > 100
C=C1C(=O)C=C[C@]2(C)CC[C@H]3C(=C)C(=O)O[C@@H]3[C@@H]12 | 7.62 | 14.4 | 5.13 | 48.8 | 4.47 | 3.94 | 9.85 | 1.98 | 4.28 | 13.5 | – | 0.483 | – | 4.24 | 6.99 | 13.3 | 5.34
